Results reported in paper PMC4349585 (Journal of medicinal chemistry, 2015).

Tested on: PC-3 cells
Assay: Cofilin phosphorylation Western blot in PC-3 cells stimulated by HGF
Assay type: cell-based
Details: 50 nM

With `Cc1c[nH]c2ncnc(-c3ccc(NC(=O)N(CCO)c4ccccc4)cc3)c12` [Compound 18b, 1-(2-Hydroxyethyl)-3-(4-(5-methyl-7H-pyrrolo[2,3-d]pyrimidin-4-yl)phenyl)-1-phenylurea] the “inhibition of cofilin phosphorylation in PC-3 cells (Western blot)” value was “significant inhibition”.
